US4794103A, “Pharmaceutical compositions containing peptides of the cholecystokinin-cerulein group for the therapy of shock conditions and of respiratory and cardiocirculatory insufficiencies” (priority 1986, dated 1988)

Tested on: female Wistar rats
Experiment: Hypovolemic shock produced by bleeding in anesthetized rats, intravenous bolus of the polypeptides
Type: in vivo, rat
Conditions: for MEAN ARTERIAL PRESSURE 15-30 min. After bleeding: mean ± S.E.
Method: Intact and adrenalectomized female Wistar rats (Nossan, Correzzano, Milano, Italy) weighing 250 to 300 g were used. Following anesthetization and heparinization a common carotid artery and an iliac vein were cannulated in rats. Arterial blood pressure was recorded by means of a pressure transducer (Statham P23 Db) connected to a polygraph (Battaglia-Rangoni, Bologna, Italy). […] Hypovolemic shock was produced by intermittently withdrawing blood from the venous catheter until mean arterial pressure fell to 10-25 mm Hg. […] Following bleeding and mean blood pressure stabilization in the range of 10-25 mm Hg, animals were given intravenous bolus of the polypeptides. Control animals were intravenously injected with the same volume of saline (0.1 ml/100 g).

| Substance | No. of deaths 120 min. after treatment (5 μg/kg i.v. after bleeding, 6 rats used (saline: 12 of 12 died)) | MEAN ARTERIAL PRESSURE 15-30 min. After bleeding (5 μg/kg i.v. after bleeding, 6 rats, before bleeding 71.17 ± 6.07, after bleeding 11.83 ± 0.79, P < 0.05 versus value after bleeding) | No. of deaths 120 min. after treatment (10 μg/kg i.v. after bleeding, 5 rats used (saline: 12 of 12 died)) | MEAN ARTERIAL PRESSURE 15-30 min. After bleeding (10 μg/kg i.v. after bleeding, 5 rats, before bleeding 68.40 ± 4.98, after bleeding 14.00 ± 1.82, P < 0.01 versus value after bleeding) | No. of deaths 120 min. after treatment (20 μg/kg i.v. after bleeding, 5 rats used (saline: 12 of 12 died)) | MEAN ARTERIAL PRESSURE 15-30 min. After bleeding (20 μg/kg i.v. after bleeding, 5 rats, before bleeding 72.00 ± 4.67, after bleeding 14.40 ± 0.87, P < 0.01 versus value after bleeding) | No. of deaths 120 min. after treatment (20 μg/kg i.v. after bleeding, 6 rats used (saline: 12 of 12 died)) | MEAN ARTERIAL PRESSURE 15-30 min. After bleeding (20 μg/kg i.v. after bleeding, 6 rats, before bleeding 75.17 ± 6.62, after bleeding 12.17 ± 1.11, P < 0.01 versus value after bleeding) |
| --- | --- | --- | --- | --- | --- | --- | --- | --- |
| CCK8 | 2 | 26.33 ± 7.05 mm Hg | 0 | 41.80 ± 3.79 mm Hg | 0 | 52.40 ± 2.73 mm Hg |  |  |
| cerulein |  |  |  |  |  |  | 0 | 54.67 ± 4.29 mm Hg |
